This is an account of results in patent US20050209278A1, “Piperidinyl- and piperazinyl-sulfonylmethyl hydroxamic acids and their use as protease inhibitors” (priority 2002, published 2005).

For the experiment, the target named is T1, MMP-2 (Homo sapiens, UniProt P08253).
T1 construct: made in house; host or cells: MMP-2-transfected p2AHT2 cells
T1 sequence (P08253 110-660): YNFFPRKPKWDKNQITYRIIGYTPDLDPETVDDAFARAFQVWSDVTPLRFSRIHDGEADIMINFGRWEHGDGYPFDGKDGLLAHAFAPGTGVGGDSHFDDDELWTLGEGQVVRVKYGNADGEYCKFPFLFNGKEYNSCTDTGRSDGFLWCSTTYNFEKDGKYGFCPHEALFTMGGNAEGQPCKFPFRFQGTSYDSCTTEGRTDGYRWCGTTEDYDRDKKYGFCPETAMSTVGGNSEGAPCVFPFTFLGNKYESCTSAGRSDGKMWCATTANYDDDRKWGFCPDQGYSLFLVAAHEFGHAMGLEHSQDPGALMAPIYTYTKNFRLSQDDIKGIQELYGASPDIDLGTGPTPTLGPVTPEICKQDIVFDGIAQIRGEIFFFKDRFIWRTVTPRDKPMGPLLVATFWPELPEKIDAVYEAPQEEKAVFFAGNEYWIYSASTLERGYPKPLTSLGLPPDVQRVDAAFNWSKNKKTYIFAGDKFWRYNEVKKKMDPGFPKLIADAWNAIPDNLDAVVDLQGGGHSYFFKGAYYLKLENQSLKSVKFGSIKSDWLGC
Nature of the experiment: In vitro MMP inhibition, IC50 determination (fluorogenic substrate I). The experiment is classed as biochemical. The conditions noted are these: values in parenthesis; 4 μM substrate I; room temperature. The method, then:
Several hydroxamic acids and salts thereof were analyzed in in vitro assays to determine their ability to inhibit the MMP cleavage of peptide substrates. […] and IC50 constants were calculated from the assayed hydroxamic acid-MMP interactions.
Human recombinant MMP-1, MMP-2, MMP-9, MMP-13, and MMP-14 were used in this assay. All enzymes were prepared in Assignee's laboratories following usual laboratory procedures. Protocols for the preparation and use of these enzymes are available in the scientific literature. See, e.g., Enzyme Nomenclature (Academic Press, San Diego, Calif., 1992) (and the citations therein). See also, Freije et al., “Molecular cloning and expression of collagenase-3, a novel human matrix metalloproteinase produced by breast carcinomas,” J Biol. Chem., 269(24), 16766-16773 (1994).
The MMP-2 proenzyme was purified by gelatin Sepharose chromatography from MMP-2-transfected p2AHT2 cells provided by Dr. Gregory Goldberg of Washington University (St. Louis, Mo.).
All MMPs were activated using 4-aminophenylmercuric acetate (“APMA”, Sigma Chemical, St. Louis, Mo.) or trypsin. MMP-9 also was activated using human recombinant MMP-3 (purified in Assignee's laboratory following standard cloning and purification techniques).
Two fluorogenic, methoxycoumarin-containing polypeptide substrates were used in the MMP inhibition assays: [drawing 427] Here, “Dpa” is 3-(2,4-dinitrophenyl)-L-2,3-diaminopropionyl group, and “MCA” is 7-methoxycoumarin-4-yl acetyl. Substrate (I) was purchased from Baychem (Redwood City, Calif.), and substrate II was prepared Assignee's laboratory. Substrate I was used in the IC50 determination assays, while substrate II was used in the Ki determination assays. In the absence of MMP inhibitory activity, either substrate is cleaved at the Gly-Leu peptide bond. This cleavage separates the highly fluorogenic peptide from the 2,4-dinitrophenyl quencher, thus resulting in increase of fluorescent intensity.
The stock solutions of the assayed hydroxamic acids (or salts thereof) were prepared in 1% dimethyl sulfoxide (DMSO). These stock solutions were diluted in Buffer A (100 mM Tris-HCl, 100 mM NaCl, 10 mM CaCl2, 0.05% polyoxyethylene 23 lauryl ether, pH 7.5) to obtain solutions with different hydroxamic acid concentrations, i.e., assay solutions with different concentrations of the assayed MMP inhibitory compound. The experiment controls contained the same amount of Buffer A/DMSO as the assayed sample, but contained no hydroxamic acid (or salt thereof).
The assays from which the IC50 determinations were made were performed as follows. The MMPs were activated with either trypsin or APMA (4-aminophenylmercuric acetate, Sigma Chemical, St. Louis, Mo.). The assayed hydroxamic acid samples were incubated in Microfluor™ White Plates (Dynatech, Chantilly, Va.) and analyzed on a Perkin Elmer L550 plate reader (Norwalk, Conn.). The excitation wavelength was 328 nm, and the emission wavelength—415 nm. All samples (assayed hydroxamic acids and controls) were incubated in separate plates at room temperature in the presence of 4 μM of MMP substrate (I). As stated in the previous paragraph, samples containing varying concentrations of the same assayed hydroxamic acid were prepared. Inhibition was measured as a reduction in fluorescent intensity as a function of MMP inhibitor concentration.
The above protocols were used to determine IC50 constants and Ki values for the compounds in Examples 1-27 above. All values in Table 2 are given in nM units. The IC50 measurements are in parenthesis.

Structures can show the parent of a compound that is named as a salt. Bounds are passed on as bounds.

Turning to `CCCCc1ccc(N2CCN(S(=O)(=O)C3(C(=O)NO)CCN(CCOC)CC3)CC2)cc1` [Example 5, 4-{[4-(4-butylphenyl)piperazin-1-yl]sulfonyl}-N-hydroxy-1-(2-methoxyethyl)piperidine-4-carboxamide Dihydrochloride], the IC50 (usually the concentration needed to halve the response being measured) is below 0.1 nM. On to `CCCCCc1ccc(C2CCN(S(=O)(=O)C3(C(=O)NO)CCN(CCOC)CC3)CC2)cc1` [Example 15, N-hydroxy-1-(2-methoxyethyl)-4-{[4-(4-pentylpheyl)piperidin-1-yl]sulfonyl}piperidine-4-carboxamide Hydrochloride], for which the IC50 is 0.1 nM.
